What was measured:
uricase = assay: Bacterial uricase activity (Amplex Red Uric Acid/Uricase Assay Kit); assay type: biochemical; conditions: mean average of all strains of the species; 2% uric acid in medium; fluorescence after 30 min; positive control 20 mM H2O2
Procedure: Bacterial strains were evaluated for uricase catalytic activity. Prior to the assay, 1/100th volume from the glycerol stocks (example 1) was added to the microtiter plate containing appropriate medium (see overview). Culturing conditions (time, temperature, medium, aerobic or anaerobic) depend on species and can be found in Table 1. Uric acid was dissolved in medium to 2% and the medium was filter sterilized (therefore uric acid was immediately present in the medium upon culturing). Growth of the bacterial strains was assessed by visual examination (the level of viscosity of the medium) before harvesting for fluorescence measurement. […]
The enzyme assay, Amplex® Red Uric Acid/Uricase Assay Kit; Catalog No. A22181; Molecular Probes, was used according to the instructions of the manufacturer. Fluorescence readouts were determined after 30 min using excitation at 530±12.5 nm and fluorescence detection at 590±17.5 nm. […]
The activity of the strains listed in Table 1 was determined, as described in Examples 2 and 3, as percentage of maximal fluorescence from positive controls (Bifidobacterium breve strain ATCC 15701 was used as positive control for the screems according to Example 2 and 20 mM H2O2 solution was used as positive control for the screems according to Example 3). […]

patients = patients treated with allopurinol; cited from earlier work
[1] = tested on: hyperuricemia mouse model; assay: Hyperuricemia mouse model (high-purine diet + potassium oxonate), serum uric acid; assay type: in vivo, mice; conditions: FIG. 9; normal range 40-65
Text: 6-10 weeks old mice are randomly divided into groups of 10 mice as follows, using 1.0×10^8-1010 CFU for the test product: • 1) Control group • 2) Allopurinol treatment group • 3) Microbial treatment group 1: Test product is bacterial strain BEO #104 • 4) Microbial treatment group 2: Test product is bacterial strain BEO #110 • 5) Microbial treatment group 4: Test product is bacterial strain BEO #227 • 6) Microbial treatment group 6: Test product is mix of bacterial strains BEO #110+BEO #227
The control group is fed a normal diet (laboratory chow and water ad libitum) and treated with saline (0.5 ml, sodium chloride solution in water) by intragastric administration once a day. The other groups are fed a high-purine diet (laboratory high-purine chow and water ad libitum) and administered an intraperitoneal injection of potassium oxonate 300 mg/kg once a day. The microbial treatment groups are treated daily with approximately 1.0×10^9 CFU/day by intragastric administration. The strains tested all have QPS status and they are produced and formulated under laboratory conditions.
Mice are weighed day −1 for determination of mean weight of animals in the experiment and for composition of groups. […]
Serum is collected once weekly and at the end of experiment. […] Serum is analysed for uric acid concentration.

| Compound | Uricase activity: Inhibitory activity (uricase) | patients treated reaching the treatment target (patients) | serum urate concentration over a 23-hour treatment cycle [1] |
| --- | --- | --- | --- |
| Lactobacillus plantarum | low (low (5-30% of positive control)) | – | – |
| Oc1ncnc2[nH]ncc12 [allopurinol] | – | 30-40% | large fluctuations in serum urate outside the normal range |
